Usually EC50 stands for the concentration needed to bring the measured effect to its halfway point.

T1 sequence (Q14416 19-872, species assumed): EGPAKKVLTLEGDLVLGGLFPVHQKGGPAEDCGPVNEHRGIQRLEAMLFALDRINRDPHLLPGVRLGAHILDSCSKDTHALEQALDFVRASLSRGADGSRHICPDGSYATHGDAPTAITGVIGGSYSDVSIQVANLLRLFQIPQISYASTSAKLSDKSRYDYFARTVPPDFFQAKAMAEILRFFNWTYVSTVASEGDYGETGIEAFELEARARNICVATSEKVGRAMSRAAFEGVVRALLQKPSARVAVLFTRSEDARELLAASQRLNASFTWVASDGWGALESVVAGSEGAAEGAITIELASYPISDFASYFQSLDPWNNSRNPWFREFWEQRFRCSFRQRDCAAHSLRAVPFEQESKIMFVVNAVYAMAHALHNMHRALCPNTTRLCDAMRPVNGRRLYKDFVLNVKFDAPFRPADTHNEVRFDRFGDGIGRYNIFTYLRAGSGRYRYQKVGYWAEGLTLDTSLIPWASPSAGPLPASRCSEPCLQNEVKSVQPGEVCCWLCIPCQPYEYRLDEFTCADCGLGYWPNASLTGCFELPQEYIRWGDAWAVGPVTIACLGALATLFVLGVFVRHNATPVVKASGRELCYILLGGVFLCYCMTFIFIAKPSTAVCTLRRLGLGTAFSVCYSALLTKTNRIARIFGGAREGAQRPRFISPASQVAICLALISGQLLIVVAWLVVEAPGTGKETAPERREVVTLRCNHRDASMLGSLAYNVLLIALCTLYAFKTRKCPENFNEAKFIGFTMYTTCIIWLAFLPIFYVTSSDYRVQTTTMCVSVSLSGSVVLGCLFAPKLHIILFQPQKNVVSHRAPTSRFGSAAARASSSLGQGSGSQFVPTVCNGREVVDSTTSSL

This assay concerns the target T1, mGluR2 receptor (metabotropic glutamate receptor 2) (Homo sapiens, UniProt Q14416).
T1 construct: expressed in transfected cells
As to the kind of experiment: mGluR2 Potentiator Screen, FLIPR, EC10-EC20 glutamate challenge. Type of assay: cell-based. The following applies: read-out: EC50. In outline:
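HEK cells stably co-expressing mGluR2 and Gα15, kept glutamine-free overnight, were loaded with Fluo-4 plus probenecid and GPT/pyruvate. Compounds (top 10 μM) were added ≥30 min before an EC10–EC20 glutamate challenge. Peak FLIPR fluorescence ratios were curve-fitted, excluding points above maximal effect, with maxima from on-plate standards.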
For the compound `COc1ccccc1C1CCN(Cc2nc3ccccc3n2C)CC1C` (stereo not drawn) [compound 292], the EC50 is 143 nM.

On to `COc1ccccc1C1CCN(Cc2nc3cc(F)c(F)cc3n2C)CC1C` (stereo not drawn) [compound 293], for which the EC50 was found to be 850 nM.

On to `COc1ccccc1C1CCN(Cc2nc3ccccc3n2CF)CC1C` (stereo not drawn) [compound 294], for which the EC50 is 734 nM.

Consider `OCCn1c(CN2CCC(c3ccccc3F)CC2)nc2ccccc21` [compound 295], for which the half-maximal effective concentration (EC50) is 1740 nM.

As to `Cn1c(CN2CC[C@@H]3c4c(Br)ccc(Cl)c4CC[C@H]3C2)nc2ccccc21` [compound 299], the EC50 was 6120 nM.

On to `COc1ccc(F)cc1C1CCN(Cc2nc3ccccc3n2C)CC1` [compound 300], for which the EC50 was 60.7 nM.

As to `Cc1cccc2nc(CN3CCC(c4ccccc4F)CC3)n(C)c12` [compound 301], the EC50 was determined as 42.3 nM.

Turning to `Cc1cc(C)cc(C2CCN(Cc3nc4ccccc4n3C)CC2)c1` [compound 302], the EC50 amounted to 37.4 nM.

Consider `Cn1c(CN2CCCC(c3ccc(C(F)(F)F)cc3)CC2)nc2ccccc21` (stereo not drawn) [compound 303], for which the EC50 was 868 nM.

Regarding `COc1ccccc1C1CCCN(Cc2nc3ccccc3n2C)CC1` (stereo not drawn) [compound 304], the EC50 came to 276 nM.

In the case of `Cn1c(CN2CCCC(c3ccccc3)CC2)nc2ccccc21` (stereo not drawn) [compound 305], the EC50 came out at 235 nM.

With `Cn1c(CN2CCCC(c3ccccc3F)CC2)nc2ccccc21` (stereo not drawn) [compound 306], the EC50 is 1590 nM.

As to `Cn1c(CN2CCC(c3ccccc3F)CC2)nc2cccc(C#N)c21` [compound 307], the EC50 worked out at 31.4 nM.

With `Cn1c(CN2CCC(c3ccccc3F)CC2)nc2cccc(-c3ccccc3)c21` [compound 308], the EC50 was 151 nM.

As for `COc1ccc(-c2cccc3nc(CN4CCC(c5ccccc5F)CC4)n(C)c23)cn1` [compound 309], the EC50 was determined as 112 nM.

As to `Cc1cc(F)ccc1C1CCN(Cc2nc3ccccc3n2C)CC1` [compound 310], the EC50 stood at 43.3 nM.

As for `Cn1c(CN2CCC(c3cc(F)ccc3F)CC2)nc2ccccc21` [compound 311], the EC50 is 16.1 nM.

Take `Cn1c(CN2CCC(c3ccccc3F)CC2)nc2cccc(Br)c21` [compound 312]: the EC50 is 60.1 nM.

As to `CC(O)c1ccccc1C1CCN(Cc2nc3ccccc3n2C)CC1` (stereo not drawn) [compound 313], the concentration for a half-maximal effect (EC50) was 361 nM.

For `Cn1c(CN2CCC(c3ccc(C(F)(F)F)cc3)CC2)nc2c(F)cccc21` [compound 314], the EC50 turned out to be 43.8 nM.

Regarding `Cc1ccc(C2CCN(Cc3nc4ccccc4n3C)CC2)cc1C` [compound 315], the concentration for a half-maximal effect (EC50) was determined as 308 nM.

In the case of `Cn1c(CN2CCC(c3ccc(C(F)(F)F)cc3)CC2)nc2cc(C#N)ccc21` [compound 317], the EC50 was 90.7 nM.

Take `COc1ccc(C(F)(F)F)cc1C1CCN(Cc2nc3ccccc3n2C2CC2)CC1` [compound 318]: the EC50 amounted to 4690 nM.

In the case of `COc1ccc(C(F)(F)F)cc1C1CCN(Cc2nc3ccccc3n2CCF)CC1` [compound 319], the EC50 turned out to be 1650 nM.

`COCn1c(CN2CCC(c3cc(C(F)(F)F)ccc3OC)CC2)nc2ccccc21` [compound 320]: the EC50 is 3800 nM.

In the case of `COc1ccc(C(F)(F)F)cc1C1CCN(Cc2nc3cc(F)c(F)cc3n2C)CC1` [compound 321], the EC50 came out at 1510 nM.

Regarding `COc1ccccc1[C@]1(C)CCN(Cc2nc3ccccc3n2C2CC2)C[C@@H]1C` [compound 322], the EC50 amounted to 9930 nM.

On to `COCCn1c(CN2CCC(c3cc(C(F)(F)F)ccc3OC)CC2)nc2ccccc21` [compound 323], for which the EC50 came out at 984 nM.

Take `COCCn1c(CN2CCC(c3cc(C(F)(F)F)ccc3F)CC2)nc2ccccc21` [compound 326]: the EC50 stood at 263 nM.

For the compound `Fc1ccc(C(F)(F)F)cc1C1CCN(Cc2nc3ccccc3n2C2CC2)CC1` [compound 327], the EC50 turned out to be 1980 nM.

As for `Cn1c(CN2CCC(c3cc(C(F)(F)F)ccc3F)CC2)nc2cc(F)c(F)cc21` [compound 328], the half-maximal effective concentration (EC50) stood at 463 nM.

In the case of `FCCn1c(CN2CCC(c3cc(C(F)(F)F)ccc3F)CC2)nc2ccccc21` [compound 329], the EC50 came out at 463 nM.

As to `COCn1c(CN2CCC(c3cc(C(F)(F)F)ccc3F)CC2)nc2ccccc21` [compound 330], the EC50 came to 969 nM.

Turning to `Cn1c(CN2CCC(c3ccc(F)cc3)CC2)nc2cc(C#N)ccc21` [compound 331], the EC50 worked out at 299 nM.

In the case of `COc1ccccc1C1(OC)CCN(Cc2nc3ccccc3n2C)CC1C` (stereo not drawn) [compound 332], the EC50 came out at 5220 nM.

As for `COc1ccccc1C1(OC)CCN(Cc2nc3c(Br)cccc3n2C)CC1C` (stereo not drawn) [compound 333], the EC50 is 4760 nM.

On to `COc1ccccc1C1(OC)CCN(Cc2nc3ccccc3n2CF)CC1C` (stereo not drawn) [compound 334], for which the EC50 was above 7080 nM.

Turning to `COc1ccccc1C1(OC)CCN(Cc2nc3ccccc3n2CCF)CC1C` (stereo not drawn) [compound 335], the EC50 came out at 10400 nM.

In the case of `Cn1c(CN2CCC(c3ccc(OC(F)(F)F)cc3)CC2)nc2ccccc21` [compound 340], the half-maximal effective concentration (EC50) is 200 nM.

For `Cn1c(CN2CCC(c3ccc(C(F)(F)F)cc3)CC2)nc2cccc(F)c21` [compound 341], the EC50 turned out to be 633 nM.

With `Cn1c(CN2CCC(c3ccc(F)cc3)CC2)nc2cccc(F)c21` [compound 342], the EC50 is 55.2 nM.

Turning to `COc1ccccc1C1CCN(Cc2nc3cccc(F)c3n2C)CC1` [compound 343], the EC50 amounted to 16.6 nM.

For the compound `Cn1c(CN2CCC(c3ccccc3F)CC2)nc2cccc(F)c21` [compound 344], the EC50 turned out to be 20.6 nM.

For `Cn1c(CN2CCC(c3ccc(C(F)(F)F)cc3)CC2)nc2cc(Cl)ccc21` [compound 345], the EC50 was 1600 nM.

Turning to `Cn1c(CN2CCC(c3cc(C(F)(F)F)cc(C(F)(F)F)c3)CC2)nc2ccccc21` [compound 348], the EC50 came out at 201 nM.

For `COc1cc(C(F)(F)F)ccc1C1CCN(Cc2nc3cc(F)ccc3n2C)CC1` [compound 349], the half-maximal effective concentration (EC50) was determined as 34.9 nM.

`Cn1c(CN2CCC(c3ccc(C(F)(F)F)cc3)CC2)nc2cc(F)ccc21` [compound 350]: the concentration for a half-maximal effect (EC50) was 147 nM.

As to `Cn1c(CN2CCC(c3ccccc3F)CC2)nc2cc(F)ccc21` [compound 351], the EC50 was found to be 87.7 nM.

As for `Cn1c(CN2CCC(c3ccccc3F)CC2)nc2cc(F)ccc21` [compound 352], the EC50 stood at 88.5 nM.

`Cn1c(CN2CCC(c3ccc(C(F)(F)F)cc3F)CC2)nc2cc(F)ccc21` [compound 353]: the half-maximal effective concentration (EC50) was below 40.2 nM.

With `COc1cc(C(F)(F)F)ccc1C1CCN(Cc2nc3ccccc3n2C)CC1` [compound 355], the EC50 amounted to 66.7 nM.

Regarding `COc1cc(C(F)(F)F)ccc1C1CCN(Cc2nc3c(Br)cccc3n2C)CC1` [compound 356], the concentration for a half-maximal effect (EC50) turned out to be 3900 nM.

For the compound `COc1cc(C(F)(F)F)ccc1C1CCN(Cc2nc3ccccc3n2CCF)CC1` [compound 357], the EC50 worked out at 105 nM.

For the compound `COCn1c(CN2CCC(c3ccc(C(F)(F)F)cc3OC)CC2)nc2ccccc21` [compound 358], the concentration for a half-maximal effect (EC50) came to 471 nM.

Take `COc1cc(C(F)(F)F)ccc1C1CCN(Cc2nc3ccccc3n2C2CC2)CC1` [compound 359]: the EC50 is 940 nM.

For `COc1cc(C(F)(F)F)ccc1C1CCN(Cc2nc3cc(F)c(F)cc3n2C)CC1` [compound 360], the EC50 stood at 266 nM.

In the case of `Cn1c(CN2CCC(c3ccc(C(F)(F)F)cc3)CC2)nc2cc(C(F)(F)F)ccc21` [compound 362], the EC50 stood at 5010 nM.

Consider `Cn1c(CN2CCC(c3ccc(C(F)(F)F)cc3)CC2)nc2cc(C(N)=O)ccc21` [compound 364], for which the concentration giving a half-maximal response (EC50) was 498 nM.

On to `COCn1c(CN2CCC(c3ccc(F)cc3)CC2)nc2ccccc21` [compound 365], for which the EC50 is 1670 nM.

For `Cn1c(CN2CCC(c3ccc(F)cc3)CC2)nc2c(Br)cccc21` [compound 366], the EC50 amounted to 2140 nM.

With `COCCn1c(CN2CCC(c3ccc(F)cc3)CC2)nc2ccccc21` [compound 367], the EC50 was found to be 905 nM.

As for `Cn1c(CN2CCC(c3ccc(F)cc3)CC2)nc2cc(F)c(F)cc21` [compound 368], the EC50 stood at 475 nM.

Regarding `Fc1ccc(C2CCN(Cc3nc4ccccc4n3C3CC3)CC2)cc1` [compound 369], the EC50 was 1770 nM.

Consider `FCCn1c(CN2CCC(c3ccc(F)cc3)CC2)nc2ccccc21` [compound 370], for which the EC50 was found to be 582 nM.

In the case of `CC(C)Oc1ccccc1C1CCN(Cc2nc3cc(F)ccc3n2C)CC1` [compound 371], the EC50 is 692 nM.

`Cn1c(CN2CCC(c3cc(Cl)ccc3F)CC2)nc2cc(F)ccc21` [compound 372]: the EC50 was 308 nM.

As for `Cn1c(CN2CCC(c3ccccc3C(F)(F)F)CC2)nc2cc(Cl)ccc21` [compound 373], the EC50 turned out to be 1750 nM.

Take `Cn1c(CN2CCC(c3cccc(C(F)(F)F)c3)CC2)nc2cc(F)ccc21` [compound 374]: the EC50 was determined as 245 nM.

Turning to `Cn1c(CN2CCC(c3cc(C(F)(F)F)ccc3F)CC2)nc2cc(F)ccc21` [compound 375], the EC50 is 348 nM.

`Cn1c(CN2CCC(c3cc(F)cc(F)c3)CC2)nc2cc(F)ccc21` [compound 376]: the EC50 was 299 nM.

As to `COc1ccc(C(F)(F)F)cc1C1CCN(Cc2nc3cc(F)ccc3n2C)CC1` [compound 377], the EC50 is 853 nM.

As to `COc1cccc(C2CCN(Cc3nc4cc(F)ccc4n3C)CC2)c1` [compound 378], the EC50 was 568 nM.

Regarding `CC(C)Oc1ccccc1C1CCN(Cc2nc3cc(Cl)ccc3n2C)CC1` [compound 379], the EC50 came out at 1570 nM.

Consider `Cn1c(CN2CCC(c3cc(Cl)ccc3F)CC2)nc2cc(Cl)ccc21` [compound 380], for which the concentration giving a half-maximal response (EC50) came to 1730 nM.

As for `Cn1c(CN2CCC(c3cccc(C(F)(F)F)c3)CC2)nc2cc(Cl)ccc21` [compound 381], the EC50 came out at 1590 nM.

Take `Cn1c(CN2CCC(c3cc(F)cc(F)c3)CC2)nc2cc(Cl)ccc21` [compound 382]: the EC50 is 7060 nM.

Turning to `COc1cc(C(F)(F)F)ccc1C1CCN(Cc2nc3cc(Cl)ccc3n2C)CC1` [compound 383], the half-maximal effective concentration (EC50) was determined as 307 nM.

For the compound `Cn1c(CN2CCC(c3ccc(C(F)(F)F)cc3F)CC2)nc2cc(Cl)ccc21` [compound 384], the EC50 turned out to be 493 nM.

Source of the values: patent publication US20080280933A1, “BENZIMIDAZOLYL COMPOUNDS” (priority 2006, published 2008).
